Results on 13 compounds are retold here after US20040106682A1, “Novel benzylideneamino guanidines and their uses as ligands to the melnocortin receptors” (priority 2001, published 2004).

One data set concerns the target T1, MC1 receptor (Mus musculus, UniProt Q01727).
T1 construct: B16 mouse melanoma cells were used, which endogenously express the (mouse) MC1 receptor; endogenous in cells; host or cells: B16 mouse melanoma cells
Description: Affinity for the MC1-receptor, 125I-NDP-αMSH binding assay. To be noted: B16 mouse melanoma cells endogenously expressing mouse MC1, displacement of 125I-NDP-MSH, nb = non-binding, i.e. no affinity; for Ki: read-out: Affinity for MC-receptors, Ki, MC1. As to the method:
Test 1. Affinity for the MC1-receptor
The binding assay was carried out essentially as described by Lunec et al., Melanoma Res. 1992; 2; 5-12 using I^125-NDP-αMSH as ligand.
(§1) Essentially, the affinity of the compounds for the different melanocortin receptors were determined by using either insect cells (Sf9) or COS cells, which were transfected with recombinant human MC3, MC4 or MC5 receptors. For the determination of the affinity for the MC1 receptor, B16 mouse melanoma cells were used, which endogenously express the (mouse) MC1 receptor.
(§2) The compounds were tested at different concentrations for their ability to displace a ^125I-labelled NDP-MSH from the respective receptor. Incubation was performed in 96-well plates, using 50,000 cells/well (Sf9 or COS cells) up to 200,000 cells/well (mouse melanoma cells).
(§3) The test compound or standard (NDP-MSH) was added in an appropriate concentration (generally between 10^−4 M and 10^−12 M) together with labelled tracer (approx. 50,000 cpm/well) and incubated for 2 hours (at room temperature for Sf9 cells and at +37° C. for COS cells and mouse melanoma cells).
(§4) After the incubation, the cells were washed twice to get rid of the excess tracer and compound, and the cells were lysed with 0.1 M NaOH. The lysate was counted in a gamma-counter, binding was calculated and the affinity determined.
(In general: Displacement assays read how much labelled ligand stays bound in the presence of the test substance.)

The target of data set [1] is T2, recombinant human MC3 receptor (Homo sapiens, UniProt P41968).
T2 construct: expressed in transfected cells; host or cells: Sf9 insect cells or COS cells
T2 sequence (P41968 whole entry): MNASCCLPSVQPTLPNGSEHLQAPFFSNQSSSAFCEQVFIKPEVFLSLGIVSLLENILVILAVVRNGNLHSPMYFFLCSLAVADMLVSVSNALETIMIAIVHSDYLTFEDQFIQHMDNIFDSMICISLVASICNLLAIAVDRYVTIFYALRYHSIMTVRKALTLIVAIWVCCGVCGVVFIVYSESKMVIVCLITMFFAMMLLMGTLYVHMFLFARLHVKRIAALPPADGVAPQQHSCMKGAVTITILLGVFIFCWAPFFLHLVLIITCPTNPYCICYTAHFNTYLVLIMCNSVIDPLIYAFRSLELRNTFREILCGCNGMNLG
Briefly: Affinity for the MC3-receptors, 125I-NDP-αMSH binding assay. To be noted: Sf9 or COS cells transfected with recombinant human MC3, displacement of 125I-NDP-MSH, nb = non-binding, i.e. no affinity; for Ki: read-out: Affinity for MC-receptors, Ki, MC3. As to the method:
(§5) Test 2. Affinity for the MC3-receptors, the MC4receptors and the MC5-receptors
(§6) The binding assays were carried out essentially as described by Szardenings et al., J. Biol. Chem. 1997; 272; 27943-27948 and Schiöth et al., FEBS Lett. 1997; 410; 223-228 using I^125-NDP-αMSH as ligand.
as §1, §2, §3, §4

For data set [2], the target named is T3, recombinant human MC4 receptor (Homo sapiens, UniProt P32245).
T3 construct: expressed in transfected cells; host or cells: Sf9 insect cells or COS cells
T3 sequence (P32245 whole entry): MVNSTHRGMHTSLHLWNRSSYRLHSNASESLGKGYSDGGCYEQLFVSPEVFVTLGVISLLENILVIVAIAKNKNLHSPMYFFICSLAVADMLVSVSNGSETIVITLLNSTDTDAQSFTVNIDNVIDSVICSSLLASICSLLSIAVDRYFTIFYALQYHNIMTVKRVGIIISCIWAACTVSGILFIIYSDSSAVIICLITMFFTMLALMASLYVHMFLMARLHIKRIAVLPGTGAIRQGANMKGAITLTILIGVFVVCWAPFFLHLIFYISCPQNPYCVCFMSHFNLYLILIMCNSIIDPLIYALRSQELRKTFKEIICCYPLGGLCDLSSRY
Briefly: Affinity for the MC4-receptors, 125I-NDP-αMSH binding assay. To be noted: Sf9 or COS cells transfected with recombinant human MC4, displacement of 125I-NDP-MSH, nb = non-binding, i.e. no affinity; for Ki: read-out: Affinity for MC-receptors, Ki, MC4. How it is done: as §5, §6, §1, §2, §3, §4

Data set [3] concerns the target T4, recombinant human MC5 receptor (Homo sapiens, UniProt P33032).
T4 construct: expressed in transfected cells; host or cells: Sf9 insect cells or COS cells
Description: Affinity for the MC5-receptors, 125I-NDP-αMSH binding assay. To be noted: Sf9 or COS cells transfected with recombinant human MC5, displacement of 125I-NDP-MSH, nb = non-binding, i.e. no affinity; for Ki: read-out: Affinity for MC-receptors, Ki, MC5. How it is done:
as §5, §6, §1, §2, §3, §4

In the next data set the test system is melanocortin receptors. Description: Affinity/activity on melanocortin receptors (general statements). It is filed as binding. To be noted: statement in words, receptor subtype not specified.

Where a name gives a salt, the structure may show the parent alone.

T4 sequence (P33032 whole entry): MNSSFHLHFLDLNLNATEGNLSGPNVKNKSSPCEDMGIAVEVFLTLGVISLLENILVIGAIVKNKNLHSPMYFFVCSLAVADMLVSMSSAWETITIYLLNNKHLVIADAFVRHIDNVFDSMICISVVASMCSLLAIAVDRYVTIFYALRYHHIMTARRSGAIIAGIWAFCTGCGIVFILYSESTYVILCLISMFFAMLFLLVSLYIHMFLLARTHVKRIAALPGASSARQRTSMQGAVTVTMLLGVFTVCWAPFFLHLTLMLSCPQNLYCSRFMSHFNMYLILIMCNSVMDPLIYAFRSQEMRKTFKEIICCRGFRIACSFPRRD
T1 sequence (Q01727 whole entry): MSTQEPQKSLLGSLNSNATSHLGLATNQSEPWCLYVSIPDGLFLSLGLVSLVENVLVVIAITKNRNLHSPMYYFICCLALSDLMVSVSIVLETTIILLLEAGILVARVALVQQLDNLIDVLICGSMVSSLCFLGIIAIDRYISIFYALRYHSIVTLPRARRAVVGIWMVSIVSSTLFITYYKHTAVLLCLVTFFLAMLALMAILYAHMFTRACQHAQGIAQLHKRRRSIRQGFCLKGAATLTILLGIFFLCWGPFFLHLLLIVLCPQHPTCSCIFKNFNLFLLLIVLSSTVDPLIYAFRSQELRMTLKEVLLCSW

A word on the melting point: it is the temperature of the solid-liquid transition. Compound `N=C(N)NN=Cc1ccc(I)cc1Br` (as salt: HCl) [1:9, N-(2-Bromo-4-Iodobenzylideneamino)guanidine] returned a melting point of 236 to 239 °C.
For `N=C(N)NN=Cc1cccc(Cl)c1I` (as salt: salt) [1:1, N-(3-Chloro-2-Iodobenzylideneamino)guanidine], the melting point is 231 to 232.5 °C.
`COc1cccc(OC)c1C=NNC(=N)N` (as salt: salt) [1:11, N-(2,6-Dimethoxybenzylideneamino)guanidine] yielded a melting point of 158 to 160 °C.
A word on the Ki: it is the equilibrium dissociation constant of an inhibitor or competing ligand from its target. Take `N=C(N)NN=Cc1cccc(Cl)c1I` [1:1, N-(3-Chloro-2-Iodobenzylideneamino)guanidine]: the inhibition constant (Ki) at MC1 receptor is 0.5 µM; in data set [1] it was 5.8 µM; in data set [2] it was 0.01 µM; in data set [3], 4.9 µM.
The compound `N=C(N)NN=Cc1cc(F)ccc1F` (as salt: salt) [1:10, N-(2,5-Difluorobenzylideneamino)guanidine] had a melting point of 211 to 212 °C.
As for `N=C(N)NN=Cc1c(Br)cccc1Br` [1:6, N-(2,6-Dibromobenzylideneamino)guanidine], the Ki on MC1 receptor amounted to 0.8 µM; in data set [1] it was 22.7 µM; in data set [2] it was 0.1 µM; in data set [3], 29.6 µM.
Take `N=C(N)NN=Cc1c(Br)cccc1Br` (as salt: HCl) [1:6, N-(2,6-Dibromobenzylideneamino)guanidine]: the melting point fell in the range of 178 to 183 °C.
For the compound `N=C(N)NN=Cc1ccc(Br)cc1I` (as salt: salt) [1:13, N-(4-Bromo-2-iodobenzylideneamino)guanidine], the melting point was in the range of 202 to 207 °C.
For `N=C(N)NN=Cc1cccc(O)c1O` (as salt: salt) [1:12, N-(2,3-Dihydroxybenzylideneamino)guanidine], the melting point is 223 to 224.5 °C.
`N=C(N)NN=Cc1ccc([N+](=O)[O-])c(Cl)c1Cl` [1:4, N-(2,3-Dichloro-4-Nitrobenzylideneamino)guanidine]: the Ki was 3.6 µM at MC1 receptor, 10.1 µM in data set [1], 12.2 µM in data set [2] and 10.7 µM in data set [3].
As for `N=C(N)NN=Cc1ccc([N+](=O)[O-])c(Cl)c1Cl` (as salt: HCl) [1:4, N-(2,3-Dichloro-4-Nitrobenzylideneamino)guanidine], the melting point is 258 to 262 °C.
As to `N=C(N)N/N=C/c1c(Cl)cccc1Cl` [Guanobenz, Guanabenz, reference compound], the “Affinity for MC-receptors, Ki, MC1” value at MC1 receptor was “nb”. Also, the “Affinity for MC-receptors, Ki, MC3” value in data set [1] is recorded as “nb”. Also, the “Affinity for MC-receptors, Ki, MC4” value in data set [2] is “nb”. In data set [3], the “Affinity for MC-receptors, Ki, MC5” value was “nb”. In addition, the “affinity to the melanocortin receptors” value in the data set with melanocortin receptors is listed as “no affinity”.
The compound `CCOc1cc(C=NNC(=N)N)c([N+](=O)[O-])c(C(F)(F)F)c1` (as salt: HCl) [1:5, N-(5-Ethoxy-2-Nitro-3-Trifluoromethylbenzylideneamino)guanidine] registered a melting point of 92 to 98 °C.
